Values of other authors, collected in patent US20250295648A1 (priority 2024, published 2025).

System: Parkinson's patients with troublesome L-DOPA-induced dyskinesia
Conditions: cited from earlier work

For `Fc1ccc(-c2cncc(CNC[C@H]3CCc4ccccc4O3)c2)cc1` [sarizotan], the “effect on L-DOPA efficacy” value (phase 2b study, Goetz 2007) is listed as “two of the three tested doses significantly reduced L-DOPA efficacy” and the “reduction of LID” value (third (lowest) dose, two phase 3 trials) is listed as “ineffective in reducing LID”.
